Laboratory results as given in patent US5414001A, “Antineoplastic pyrrolo[4,3,2-de]quinolin-8(1H)-ones” (American Cyanamid Company, priority 1993, dated 1995).
Structures can show the parent of a compound that is named as a salt. Where two headings read alike, the source gives them in different places.

What was measured:
[1] = test system: panel of >20 human tumor cell lines; assay: In vitro tumor panel evaluation, Sulforhodamine B (SRB) cytotoxicity assay; type: cell-based; conditions: for IC50: Homo sapiens
[2] = test system: DDP (Cisplatin resistant ovarian carcinoma cell line) / S (A2780); assay: SRB cytotoxicity ratio DDP/S (cisplatin resistance); type: cell-based, human; conditions: 2880 min
HCT15 / SKBR3 = assay: SRB cytotoxicity ratio HCT15/SKBR3 (topoisomerase resistance); type: cell-based, human; conditions: 2880 min
CaCo2 / CX1 = conditions: human, Caco-2, 48 h
Experimental: The cytotoxic activity of the pyrrolo[4,3,2-de]quinolin-8(1H)-ones against a panel of >20 human tumor cell lines is determined using the Sulforhodamine B protein dye-binding colorimetric cytotoxicity assay (SRB) described by Skehan et al. (Journal National Cancer Institute 82:1107-1112, 1990), as modified by Monks et al., (Journal National Cancer Institute 83: 757-766, 1991). […] Positive controls (i.e., etoposide) are included in every experiment. Treatments are for 48 hours, after which cells are fixed in 10% trichloroacetic acid (10% final concentration), washed five times with deionized water and stained with SRB solution (0.4% in glacial acetic acid). Protein-bound stain is solubilized with 0.1 ml tris buffer and the adsorbance values are recorded with a microplate reader. Duplicate plates of cells are fixed with trichloroacetic acid at the time of drug addition to establish To values, as described by Monks et al. (JNCl, 83: 757-766, 1991). The effect of drug treatments over the five-long range of concentrations is calculated using the formula, T--To/C--To, to determine the IC50 values.
3) The ratio values for DDP/S; CaCo2/CX1; MIP/SW620, and; HCT15/SKBR3 refer to the IC50 value for resistant cell lines included in the tumor cell panel, divided by the IC50 value for corresponding drug sensitive cell lines. For example, DDP is a Cisplatin resistant ovarian carcinoma cell line, and S is the corresponding parent drug sensitive ovarian carcinoma cell line (A2780). […] CaCo2 is a slow growing non P-glycoprotein multidrug resistant colon carcinoma cell line. MIP is a colon carcinoma cell line that expresses P-glycoprotein and is multidrug resistant; SW620 is a drug sensitive colon carcinoma cell line. HCT15 is a colon carcinoma cell line that is resistant to topoisomerase inhibitors and SKBR3 is a breast carcinoma that is very sensitive to topoisomerase inhibitors.

MIP / SW620 = assay: SRB cytotoxicity ratio MIP/SW620 (MDR, P-glycoprotein resistance); type: cell-based, human; conditions: 2880 min
[3] = Mean IC50 value for all 20 cell lines, 48 hours, read-out: AVG IC50
[4] = least sensitive cell line, 48 hours, read-out: MAX IC50
[5] = most sensitive cell line, 48 hours, read-out: MIN IC50
[6] = IC50 resistant / IC50 sensitive cell line, cisplatin resistance
[7] = IC50 resistant / IC50 sensitive cell line, topoisomerase resistance
[8] = IC50 resistant / IC50 sensitive cell line, MDR (pglycoprotein) resistance
[9] = Mean IC50 value for all 20 cell lines, 48 hours
[10] = human, ddp/s ovarian carcinoma cells

Compound | CaCO2/CX1 IC50 ratio (CaCo2 / CX1) | IC50 [1, 3] [µg/mL] | IC50 [1, 4] [µg/mL] | IC50 [1, 5] [µg/mL] | DDP/S IC50 ratio [2, 6] | HCT15/SKBR3 IC50 ratio (HCT15 / SKBR3; [7]) | MIP/SW620 IC50 ratio (MIP / SW620; [8]) | AVG IC50 [1, 9] [µg/mL] | DDP/S IC50 ratio [2, 10] | MIP/SW620 IC50 ratio (MIP / SW620; human, mip/sw620 cells) | HCT15/SKBR3 IC50 ratio (HCT15 / SKBR3; human, hct15/skbr3 cells) | IC50 ([1]; 48 h, read-out: AVG IC50) [µg/mL] | IC50 ([1]; 48 h, read-out: MAX IC50) [µg/mL] | IC50 ([1]; 48 h, read-out: MIN IC50) [µg/mL] | MAX IC50 ([1]; least sensitive cell line, 48 hours) [µg/mL] | MIN IC50 ([1]; most sensitive cell line, 48 hours) [µg/mL]
C[N+]1=C2C=C(NCc3ccc(C(=O)O)cc3)C(=O)c3[nH]cc(c32)CC1 [Example 45, 7-[[(4-Carboxylphenyl)methyl]amino]-1,3,4,8-tetrahydro-5-methyl-8-oxo-pyrrolo[4,3,2-de]quinolinium trifluoroacetate] | – | 33 | 50 | 8.99 | 1.2 | 1.6 | 1.2 | – | – | – | – | – | – | – | – | –
COc1cccc(Cn2cc3c4c2C(=O)C(N)=CC4=[N+](C)CC3)c1 [Example 23, 7-Amino-1,3,4,8-tetrahydro-1-[(3-methoxyphenyl)methyl]-5-methyl-8-oxo-pyrrolo[4,3,2-de]quinolinium trifluoroacetate] | 1.0 | 2.1 | 4.2 | 0.45 | 1.2 | 3.8 | 8.6 | – | – | – | – | – | – | – | – | –
Cn1cc2c3c1C(=O)C(=O)C=C3NCC2.O=C(O)C(F)(F)F [Example 51, 1,3,4,5-Tetrahydro-1-methyl-pyrrolo[4,3,2-de]quinoline-7,8-dione trifluoroacetate] | – | 48 | 50 | 35.6 | – | – | – | – | – | – | – | – | – | – | – | –
7-(Cyclohexylamino)-1,3,4,8-tetrahydro-5-methyl-8-oxo-pyrrolo[4,3,2-de]quinolinium trifluoroacetate [Example 41] | 8.3 | – | – | – | 1.8 | 737.0 | – | 6.5 | – | – | – | – | – | – | – | –
Cn1cc2c3c1C(=O)C(N)=C(Br)C3=NCC2 [Example 14, 7-Amino-6-bromo-3,4-dihydro-1-methyl-8-oxo-pyrrolo [4,3,2-de]quinolin-8 (1H) -one trifluoroacetate] | 0.8 | 2.3 | 3.54 | 0.84 | – | – | – | – | 1.2 | 1.4 | 2.1 | – | – | – | – | –
CC(CCC(C)NC1=CC2=[N+](C)CCc3c[nH]c(c32)C1=O)NC1=CC2=[N+](C)CCc3c[nH]c(c32)C1=O (racemic) [Example 57, 7,7'-(1,4-Dimethyl-1,4-butanediyldiimino)-bis[1,3,4,8-tetrahydro-5-methyl-8-oxo-pyrrolo[4,3,2-de]quinolinium trifluoroacetate] | 100.8 | – | – | – | – | – | – | – | 1.8 | – | 32.1 | 13 | 50 | 0.43 | – | –
COC(=O)CCNC1=CC2=[N+](C)CCc3cn(Cc4ccccc4)c(c32)C1=O [Example 25, 1,3,4,8-tetrahydro-7-[(3-methoxy-3-oxopropyl)amino]-5-methyl-8-oxo-1-(phenylmethyl)pyrrolo[4,3,2-de]quinolinium trifluoroacetate] | 7.3 | 13 | 50 | 1.32 | 6.1 | 23.5 | – | – | – | – | – | – | – | – | – | –
O=C1CC2SC3CC2(C=C1Br)C1=C(N3)C(=O)c2[nH]cc3c2C1=NCC3 (centres unmarked) [Example 9, discorhabdin A] | – | – | – | – | – | – | – | – | 1.4 | – | – | – | – | – | – | –
C[N+]1=C2C(Cl)=C(N)C(=O)c3[nH]cc(c32)CC1 [Example 10, 7-Amino-6-chloro-1,3,4,8-tetrahydro-5-methyl-8-oxo-pyrrolo[4,3,2-de]quinolinium trifluoroacetate] | 0.25 | 5.1 | 10 | 1.29 | – | 1.5 | 0.7 | – | – | – | – | – | – | – | – | –
Cn1cc2c3c1C(=O)C(N)=CC3=[N+](C)CC2 [Example 29, 7-Amino-1,3,4,8-tetrahydro-1,5-dimethyl-8-oxo-pyrrolo[4,3,2-de] quinolinium trifluoroacetate] | 2.9 | – | – | – | – | – | – | – | – | 1.8 | 1.8 | 2.6 | 5.7 | 1.03 | – | –
Cn1cc2c3c1C(=O)C(N)=CC3=[N+](Cc1ccccc1)CC2 [Example 32, 7-Amino-1,3,4,8-tetrahydro-1-methyl-8-oxo-5-(phenylmethyl)-pyrrolo[4,3,2-de]quinolinium trifluoroacetate] | 1.8 | – | – | – | – | – | – | – | – | 0.9 | 3.5 | 2.1 | 10 | 0.37 | – | –

Now from value to compound, other results behind:

CaCO2/CX1 IC50 ratio (CaCo2 / CX1) | Compound | IC50 [1, 3] [µg/mL] | IC50 [1, 4] [µg/mL] | IC50 [1, 5] [µg/mL] | DDP/S IC50 ratio [2, 6] | HCT15/SKBR3 IC50 ratio (HCT15 / SKBR3; [7]) | MIP/SW620 IC50 ratio (MIP / SW620; [8]) | AVG IC50 [1, 9] [µg/mL] | DDP/S IC50 ratio [2, 10] | MIP/SW620 IC50 ratio (MIP / SW620; human, mip/sw620 cells) | HCT15/SKBR3 IC50 ratio (HCT15 / SKBR3; human, hct15/skbr3 cells) | IC50 ([1]; 48 h, read-out: AVG IC50) [µg/mL] | IC50 ([1]; 48 h, read-out: MAX IC50) [µg/mL] | IC50 ([1]; 48 h, read-out: MIN IC50) [µg/mL] | MAX IC50 ([1]; least sensitive cell line, 48 hours) [µg/mL] | MIN IC50 ([1]; most sensitive cell line, 48 hours) [µg/mL]
4.2 | Cc1[nH]c2c(c1C)C1=[N+](C)CCc3c[nH]c(c31)C2=O [Example 54, 3,5,6,7-Tetrahydro-1,8,9-trimethyl-6-oxo-2M-dipyrrolo[4,3,2-de:2',3'-h]quinolinium trifluoroacetate] | 18 | 50 | 2.26 | 1.2 | 3.9 | – | – | – | – | – | – | – | – | – | –
1.3 | CNC1=CC2=[N+](C)CCc3c[nH]c(c32)C1=O [Example 35, 1,3,4,8-Tetrahydro-5-methyl-7-(methylamino)-8-oxo-pyrrolo[4,3,2-de]quinolinium trifluoroacetate] | 5.7 | 24.4 | 1.2 | 1.0 | 9.1 | 20.3 | – | – | – | – | – | – | – | – | –
32.0 | C[N+]1=C2C=C(NCc3cccc4ccccc34)C(=O)c3[nH]cc(c32)CC1 [Example 44, 1,3,4,8-Tetrahydro-5-methyl-7-[(1-naphthalenylmethyl)amino]-8-oxo-pyrrolo[4,3,2-de]quinolinium trifluoroacetate] | 5.6 | 27.1 | 0.02 | 11.3 | 1140.0 | 67.8 | – | – | – | – | – | – | – | – | –
0.6 | C=CC[N+]1=C2C=C(N)C(=O)c3c2c(cn3C)CC1 [Example 31, 7-Amino-1,3,4,8-tetrahydro-1-methyl-8-oxo-5-(2-propenyl)[4,3,2-de]quinolinium trifluoroacetate] | 1.7 | 2.59 | 0.34 | 1.2 | 2.7 | 8.0 | – | – | – | – | – | – | – | – | –
34.0 | C[N+]1=C2C=C(NCC(O)c3ccccc3)C(=O)c3[nH]cc(c32)CC1 (centres unmarked) [Example 58, 1,3,4,8-Tetrahydro-7-[2-hydroxy-2-phenylethyl)amino]-5-methyl-8-oxo-pyrrolo[4,3,2-de]quinolinium trifluoroacetate] | 11 | 50 | 0.22 | 1.5 | 227.0 | 167.0 | – | – | – | – | – | – | – | – | –
1.4 | C[N+]1=C2C=C(N)C(=O)c3c2c(cn3CCC#N)CC1 [Example 56, 7-Amino-1-(2-cyanoethyl)-1,3,4,8-tetrahydro-5-methyl-8-oxo-pyrrolo[4,3,2-de]quinolinium trifluoroacetate] | 4.7 | 21.5 | 1.56 | 1.0 | 3.1 | 2.0 | – | – | – | – | – | – | – | – | –
4.8 | CCCCCCCCN(CCCCCCCC)C1=CC2=[N+](C)CCc3c[nH]c(c32)C1=O [Example 39, 1,3,4,8-Tetrahydro-5-methyl-7-(dioctylamino)-8-oxo-pyrrolo[4,3,2-de]quinolinium trifluoroacetate] | 0.8 | 2.71 | 0.19 | 1.7 | 122.0 | 9.0 | – | – | – | – | – | – | – | – | –
5.4 | C[N+]1=C2C=C(NCc3ccccc3)C(=O)c3[nH]cc(c32)CC1 [Example 46, 1,3,4,8-Tetrahydro-5-methyl-8-oxo-7-[(phenylmethyl)amino]-pyrrolo[4,3,2-de]quinolinium trifluoroacetate] | 7 | 22.3 | 0.2 | 1.6 | 113.0 | 8.3 | – | – | – | – | – | – | – | – | –
8.3 | CC(C)NC1=CC2=[N+](C)CCc3c[nH]c(c32)C1=O.O=C([O-])C(F)(F)F [Example 40, 1,3,4,8-Tetrahydro-5-methyl-7-[(2-methylethyl)amino]-8-oxo-pyrrolo[4,3,2-de]quinolinium trifluoroacetate] | – | – | – | 1.3 | 102.0 | – | 5.8 | – | – | – | – | – | – | 50 | 0.25
38.0 | COc1ccc(CNC2=CC3=[N+](C)CCc4c[nH]c(c43)C2=O)cc1 [Example 48, 1,3,4,8-Tetrahydro-7-[[(4-methoxyphenyl)methyl]amino]-5-methyl-8-oxo-pyrrolo[4,3,2-de]quinolinium trifluoroacetate] | 7.7 | 50 | 0.02 | 11.0 | 2090.0 | – | – | – | – | – | – | – | – | – | –
15.1 | COC(=O)CCNC1=CC2=[N+](C)CCc3cn(CCC(=O)OC)c(c32)C1=O [Example 27, 1,3,4,8-Tetrahydro-1-(3-methoxy-3-oxopropyl)-7-[7-[(3-methoxy-3-oxopropyl)amino]-5-methyl-8-oxo-pyrrolo[4,3,2-de]quinolinium trifluoroacetate] | 15 | 50 | 0.17 | 5.1 | 288.0 | – | – | – | – | – | – | – | – | – | –
